AC50 and IC50 data for 16 molecules are collected here from patent US20230365526A1, “PYRIDAZINE DERIVATIVES FOR MODULATING NUCLEIC ACID SPLICING” (REMIX THERAPEUTICS INC., priority 2020, published 2023).

Structures can show the parent of a compound that is named as a salt. Where two headings read alike, the source gives them in different places.

Holding throughout (type): cell-based
Test [1] has as its system HTT mRNA. As to the kind of experiment: RT-qPCR splicing assay monitoring HTT canonical (CJ) and alternative (AJ) junction mRNA in A673 or K562 cells. Particulars: 24 hours compound treatment, top dose 10 uM. On the procedure: (§1) Compounds described herein were used to modulate RNA transcript abundance in cells. The expression of a target mRNA was measured by detecting the formation of an exon-exon junction in the canonical transcript (CJ). A compound mediated exon-inclusion event was detected by observing an increase in formation of a new junction with an alternative exon (AJ). Real-time qPCR assays were used to detect these splicing switches and interrogate the potency of various compounds towards different target genes. A high-throughput real time quantitative PCR (RT-qPCR) assay was developed to measure these two isoforms of the mRNA (CJ and AJ) for an exemplary gene, HTT, together with a control housekeeping gene, GAPDH or GUSB or PPIA, used for normalization. Briefly, the A673 or K562 cell line was treated with various compounds described herein (e.g., compounds of Formula (I)). After treatment, the levels of the HTT mRNA targets were determined from each sample of cell lysate by cDNA synthesis followed by qPCR.
• Cells-to-CT 1-step kit: ThermoFisher A25602, Cells-to-CT lysis reagent: ThermoFisher 4391851C, TaqMan™ Fast Virus 1-Step Master Mix: ThermoFisher 4444436 • GAPDH: VIC-PL, ThermoFisher 4326317E (Assay: Hs99999905_m1)—used for K562/suspension cell lines • GUSB: VIC-PL, ThermoFisher 4326320E (Assay: Hs99999908_m1)—used for K562/suspension cell lines • PPIA: VIC-PL, ThermoFisher 4326316E (Assay: Hs99999904_m1)—used for A673/adherent cell lines
(§2) The A673 cell line was cultured in DMEM with 10% FBS. Cells were diluted with full growth media and plated in a 96-well plate (15,000 cells in 100 ul media per well). The plate was incubated at 37° C. with 5% CO2 for 24 hours to allow cells to adhere. An 11-point 3-fold serial dilution of the compounds was made in DMSO then diluted in media in an intermediate plate. Compounds were transferred from the intermediate plate to the cell plate with the top dose at a final concentration of 10 uM in the well. Final DMSO concentration was kept at or below 0.25%. The cell plate was returned to the incubator at 37° C. with 5% CO2 for an additional 24 hours.
(§3) The K562 cell line was cultured in IMDM with 10% FBS. For K562, cells were diluted with full growth media and plated in either a 96-well plate (50,000 cells in 50 uL media per well) or a 384-well plate (8,000-40,000 cells in 45 uL media per well). An 11-point 3-fold serial dilution of the compounds were made in DMSO then diluted in media in an intermediate plate. Compound was transferred from the intermediate plate to the cell plate with the top dose at a final concentration of 10 uM in the well. Final DMSO concentration was kept at or below 0.25%. Final volume was 100 uL for 96-well plate and 50 uL for 384-well plate. The cell plate was then placed in an incubator at 37° C. with 5% CO2 for 24 hours.
(§4) The cells were then gently washed with 50 uL-100 uL cold PBS before proceeding to addition of lysis buffer. 30 uL-50 uL of room temperature lysis buffer with DNAse I (and optionally RNAsin) was added to each well. Cells were shaken/mixed thoroughly at room temperature for 5-10 minutes for lysis to take place and then 3 uL-5 uL of room temperature stop solution was added and wells were shaken/mixed again. After 2-5 minutes, the cell lysate plate was transferred to ice for RT-qPCR reaction setup. The lysates could also be frozen at −80° C. for later use.
In some cases, a direct lysis buffer was used. An appropriate volume of 3×lysis buffer (10 mM Tris, 150 mM NaCl, 1.5%-2.5% Igepal and 0.1-1 U/uL RNAsin, pH 7.4) was directly added to either K562 or A673 cells in media and mixed by pipetting 3 times. The plates were then incubated at room temperature with shaking/rocking for 20-50 minutes to allow for lysis to take place. After this time, the cell lysate plate was transferred to ice to set up for the RT-qPCR reactions. The lysates could also be frozen at −80° C. for later use. […]
(Quantitative PCR measures a nucleic acid by following its amplification.)

For test [2], the system named is HTT. As to the kind of experiment: Gene panel canonical junction RT-qPCR assay: HTT. Particulars: read-out: HTT (IC50, decrease in CJ mRNA levels). The protocol:
as §1, §2, §3, §4
(§5) In some cases, a direct lysis buffer was used. An appropriate volume of 3×lysis buffer (10 mM Tris, 150 mM NaCl, 1.5%-2.5% Igepal and 0.1-1 U/uL RNAsin, pH 7.4) was directly added to either K562 or A673 cells in media and mixed by pipetting 3 times. The plates were then incubated at room temperature with shaking/rocking for 20-50 minutes to allow for lysis to take place. After this time, the cell lysate plate was transferred to ice to set up for the RT-qPCR reactions. The lysates could also be frozen at −80° C. for later use.
(§6) To set up 10 uL RT-qPCR reactions, cell lysates were transferred to 384-well qPCR plates containing the master mix according to the table below. The plates were sealed, gently vortexed, and spun down before the run. The volumes were adjusted accordingly in some instances where the reaction was carried in 20 uL. The table below summarizes the components of the RT-qPCR reactions:
(§7) The RT-qPCR reaction was performed using a QuantStudio (ThermoFisher) under the following fast cycling conditions. […]

The test system of test [3] is Target C. The experiment in a line: Gene panel canonical junction RT-qPCR assay: Target C. Particulars: read-out: Target C (IC50, decrease in CJ mRNA levels). The protocol:
as §1, §2, §3, §4, §5, §6, §7

[4] abbreviates: decrease in CJ mRNA, read-out: HTT CJ AC50.
The mark [5] stands for this setting: increase in AJ mRNA, read-out: HTT AJ AC50.

Broadly, the AC50 is the midpoint of the concentration-response curve, whichever way the signal moves. The IC50 is the concentration that inhibits the measured activity by half. For `COc1nc(-c2ccc(N(C)C3CC(C)(C)NC(C)(C)C3)nn2)ccc1-c1cnn(C)n1` [Compound 259], the AC50 in test [1] (setting [4]) lay within 100 to 1000 nM; in test [1] (setting [5]), 1000 to 10000 nM. Besides, the concentration for half-maximal inhibition (IC50) in test [2] and in test [3] was 100 to 1000 nM each time.
In the case of `COc1nc(-c2ccc(N(C)[C@H]3CCN[C@@H](C)C3)nn2)ccc1-n1cccn1` [Compound 135, 6-[6-methoxy-5-(pyrazol-1-yl)pyridin-2-yl]-N-methyl-N-[(2S,4S)-2-methylpiperidin-4-yl]pyridazin-3-amine], the concentration at half-maximal activity (AC50) in test [1] (setting [4]) and in test [1] (setting [5]) was > 10000 nM in each case. For the same molecule, the IC50 was > 10000 nM in test [2] and < 100 nM in test [3].
On to `COc1nc(-c2ccc(OC3CC(C)(C)NC(C)(C)C3)nn2)ccc1-n1cccn1` [Compound 271, bis(3-[6-methoxy-5-(pyrazol-1-yl)pyridin-2-yl]-6-[(2,2,6,6-tetramethylpiperidin-4-yl)oxy]pyridazine)], for which the AC50 in test [1] (setting [4]) and in test [1] (setting [5]) was 1000 to 10000 nM throughout. In addition, the concentration for half-maximal inhibition (IC50) in test [2] and in test [3] was 1000 to 10000 nM throughout.
In the case of `COc1nc(-c2ccc(N(C)C3C[C@H]4CC[C@@H](C3)N4)nn2)ccc1-c1cnn(C)n1` (stereo partly drawn) [Compound 269, N-{6-[6-methoxy-5-(2-methyl-1,2,3-triazol-4-yl)pyridin-2-yl]pyridazin-3-yl}-N-methyl-8-azabicyclo[3.2.1]octan-3-amine], the half-maximal activity concentration (AC50) in test [1] (setting [4]) and in test [1] (setting [5]) was 100 to 1000 nM throughout. Also, the half-inhibitory concentration (IC50) was < 100 nM in test [2] and 100 to 1000 nM in test [3].
Turning to `COc1nc(-c2ccc(N(C)[C@@H]3C[C@H]4CC[C@@H](C3)N4)nn2)cnc1-c1cn[nH]c1` [Compound 260, (1R,3R,5S)—N-{6-[6-methoxy-5-(1H-pyrazol-4-yl)pyrazin-2-yl]pyridazin-3-yl}-N-methyl-8-azabicyclo [3.2.1] octan-3-amine hydrochloride], the concentration at half-maximal activity (AC50) in test [1] (setting [4]) and in test [1] (setting [5]) was 100 to 1000 nM in each case. The IC50 in test [2] and in test [3] was < 100 nM throughout.
In the case of `COc1cc(-c2ccc(N(C)[C@@H]3C[C@H]4CC[C@@H](C3)N4)nn2)ncc1-c1cn[nH]c1` [Compound 248], the AC50 in test [1] (setting [4]) and in test [1] (setting [5]) was > 10000 nM in each case. For the same molecule, the IC50 in test [2] and in test [3] was > 10000 nM in each case.
Take `COc1nc(-c2ccc(OC3CC(C)(C)NC(C)(C)C3)nn2)ccc1-c1cn[nH]c1` [Compound 244, 3-[6-methoxy-5-(1H-pyrazol-4-yl)pyridin-2-yl]-6-[(2,2,6,6-tetramethylpiperidin-4-yl)oxy] pyridazine]: the half-maximal activity concentration (AC50) in test [1] (setting [4]) and in test [1] (setting [5]) was 100 to 1000 nM throughout. The IC50 in test [2] was < 100 nM; in test [3] it was 100 to 1000 nM.
Take `COc1nc(-c2ccc(N(C)C3CC(C)(C)NC(C)(C)C3)nn2)ccc1-c1cn[nH]c1` [Compound 246, 6-[6-methoxy-5-(1H-pyrazol-4-yl)pyridin-2-yl]-N-methyl-N-(2,2,6,6-tetramethylpiperidin-4-yl)pyridazin-3-amine]: the AC50 in test [1] (setting [4]) is < 100 nM; in test [1] (setting [5]) it was 100 to 1000 nM. Besides, the IC50 in test [2] was < 100 nM; in test [3] it was 100 to 1000 nM.
Regarding `COc1nc(-c2ccc(N(C)C3CC(C)(C)NC(C)(C)C3)nn2)ccc1-n1cccn1` [Compound 272, 6-[6-methoxy-5-(pyrazol-1-yl)pyridin-2-yl]-N-methyl-N-(2,2,6,6-tetramethylpiperidin-4-yl) pyridazin-3-amine], the AC50 in test [1] (setting [4]) and in test [1] (setting [5]) was 100 to 1000 nM each time. Also, the concentration for half-maximal inhibition (IC50) in test [2] and in test [3] was 1000 to 10000 nM in each case.
On to `COc1nc(-c2ccc(N(C)[C@@H]3C[C@H]4CC[C@@H](C3)N4)nn2)ccc1-c1cnn(C)c1` [Compound 287, (1R,3s,5S)-N-(6-(6-methoxy-5-(1-methyl-1H-pyrazol-4-yl)pyridin-2-yl)pyridazin-3-yl)-N-methyl-8-azabicyclo [3.2.1] octan-3-amine], for which the concentration at half-maximal activity (AC50) in test [1] (setting [4]) is < 100 nM; in test [1] (setting [5]), 100 to 1000 nM. The IC50 in test [2] and in test [3] was < 100 nM in each case.
Consider `C[C@@H]1C[C@H](N(C)c2ccc(-c3ccc(-c4cn[nH]c4)c(=O)[nH]3)nn2)CCN1` [Compound 126, 6-(6-[methyl[(2R,4R)-2-methylpiperidin-4-yl]amino]pyridazin-3-yl)-3-(1H-pyrazol-4-yl)-1H-pyridin-2-one], for which the AC50 in test [1] (setting [4]) and in test [1] (setting [5]) was > 10000 nM throughout.
As for `CN(c1ccc(-c2ccc(-c3cn[nH]c3)c(C#N)n2)nn1)[C@@H]1C[C@H]2CC[C@@H](C1)N2` [Compound 262, 6-{6-[(1R,3R,5S)-8-azabicyclo[3.2.1]octan-3-yl(methyl)amino]pyridazin-3-yl}-3-(1H-pyrazol-4-yl)pyridine-2-carbonitrile], the results for the half-maximal activity concentration (AC50) in test [1] (setting [4]) and in test [1] (setting [5]) were < 100 nM and 100 to 1000 nM, respectively. Further, the IC50 in test [2] and in test [3] was < 100 nM throughout.
As for `COc1nc(-c2ccc(NC3CCNCC3)nn2)ccc1-c1cnn(C)n1` [Compound 270, 6-[6-methoxy-5-(2-methyl-1,2,3-triazol-4-yl)pyridin-2-yl]-N-(piperidin-4-yl)pyridazin-3-amine], the AC50 in test [1] (setting [4]) is > 10000 nM; in test [1] (setting [5]), 1000 to 10000 nM. Moreover, the IC50 in test [2] and in test [3] was 1000 to 10000 nM each time.
On to `COc1nc(-c2ccc(NC3CCNCC3)nn2)ccc1-n1cccn1` [Compound 288, 6-[6-methoxy-5-(pyrazol-1-yl)pyridin-2-yl]-N-(piperidin-4-yl) pyridazin-3-amine], for which the AC50 in test [1] (setting [4]) and in test [1] (setting [5]) was > 10000 nM in each case. Besides, the IC50 in test [2] and in test [3] was > 10000 nM each time.
As to `CCOc1nc(-c2ccc(N(C)[C@@H]3C[C@H]4CC[C@@H](C3)N4)nn2)ccc1-c1cn[nH]c1` [Compound 261, (1R,3R,5S)—N-{6-[6-ethoxy-5-(1H-pyrazol-4-yl)pyridin-2-yl]pyridazin-3-yl}-N-methyl-8-azabicyclo[3.2.1]octan-3-amine], the AC50 in test [1] (setting [4]) and in test [1] (setting [5]) was < 100 nM in each case. In addition, the half-maximal inhibitory concentration (IC50) in test [2] and in test [3] was < 100 nM each time.
Turning to `CN(c1ccc(-c2ccc(-c3cn[nH]c3)c(=O)[nH]2)nn1)[C@@H]1C[C@H]2CC[C@@H](C1)N2` [Compound 129, 6-[6-[(1R,3S,5S)-8-azabicyclo[3.2.1]octan-3-yl(methyl)amino]pyridazin-3-yl]-3-(1H-pyrazol-4-yl)-1H-pyridin-2-one], the AC50 in test [1] (setting [4]) and in test [1] (setting [5]) was 1000 to 10000 nM each time.
